“Also recorded” adds a separate entry of the source. Read-outs that look alike come from different tables or passages of the source.

The test system of data set [1] is 3×TG Alzheimer's Disease (AD) mouse model. Description: Tone-induced fear conditioning in 3×TG AD mice. The format is in vivo. The procedure:
(§1) AD mice were first randomized and sorted into control or treatment groups. […] 14 AD mice from each treatment group received Compound 3 in the drinking water (2.611 mg/kg/bw) to deliver a daily dose near the peak potentiation of the cAMP response in the brain at 10^−8M based upon the PAM assay and pharmacokinetics. This was achieved by adding Compound 3 to the drinking water at 32 uM, assuming the mice drink 6 ml/day, with only 10% of bioavailable drug reaching the brain. The drug was administered in the drinking water for 10 months, starting at age 2 months, then subjected to either different cognitive behavioral tests or electrophysiology at age 12 months to maximize the manifestations of AD symptoms in these mice. Mice are maintained on the drug for the duration of the studies and blinded to the operator.

Data set [2] addresses T1, α1A-AR (Homo sapiens, UniProt P35348).
T1 sequence (P35348 1-466): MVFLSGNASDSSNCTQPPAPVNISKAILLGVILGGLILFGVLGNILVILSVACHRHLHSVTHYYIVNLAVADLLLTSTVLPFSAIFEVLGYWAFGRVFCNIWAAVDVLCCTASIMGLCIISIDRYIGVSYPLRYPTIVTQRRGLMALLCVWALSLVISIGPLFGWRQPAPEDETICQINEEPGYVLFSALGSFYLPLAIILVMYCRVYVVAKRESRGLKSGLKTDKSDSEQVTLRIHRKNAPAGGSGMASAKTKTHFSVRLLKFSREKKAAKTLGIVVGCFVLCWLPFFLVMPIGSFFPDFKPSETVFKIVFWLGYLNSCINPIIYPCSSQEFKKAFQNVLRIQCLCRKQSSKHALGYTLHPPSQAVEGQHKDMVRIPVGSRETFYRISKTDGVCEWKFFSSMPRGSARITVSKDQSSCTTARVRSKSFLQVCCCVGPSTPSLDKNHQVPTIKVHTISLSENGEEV
The data set is described as follows: Effect of compound on binding affinity of norepinephrine, epinephrine or other ligands at α1A-AR. Also noted: expressed in transfected cells; host or cells: Rat-1 fibroblast cells. The procedure:
Competition binding assays: These compounds were characterized for their ligand binding properties at the α1-AR subtypes. The binding affinities of Compounds 1-10 were determined in a series of competition-binding experiments with the α1-AR-selective antagonist [^125I]HEAT as the radioligand. Assays were performed in duplicate in HEM buffer, in a total assay volume of 1000 μl. Radioligand binding assays are composed of 5 ug of membranes, harvested from Rat-1 fibroblast cells expressing only one of the alpha1-AR subtypes, HEM buffer containing GTP (composed of 20 mM HEPES, pH 7.4, 1.4 mM EGTA, 12.5 mM MgCl2, pH to 7.4), 0.5 mM GTP, 35-80 pM^125I-HEAT, and various doses of norepinephrine or epinephrine and incubated with shaking at 25° C. for 1-2 hours. The above conditions will convert all the conformations of the receptor into a single low affinity site. To show both high and low affinity sites of the receptor (typically seen with GPCR agonists), the GTP is removed from the binding buffer. Nonspecific binding was determined experimentally in the presence of 10^−4 M phentolamine. Unbound radioactivity was separated from membrane-bound radioactivity by filtration through Whatman GF/C filter paper. Filters are washed five times with 5 ml of cold HEM buffer containing 0.5 mMGTP (if added to the binding buffer but not if it was not added to the binding buffer). Bound radioactivity remaining on the filters was counted on an ICN gamma counter operating at 79.8% efficiency. Data are analyzed using Graphpad Prism.
To determine the effects of compounds 1-10 on the binding affinity of norepinephrine or epinephrine, the competition binding assay was repeated as above with one dose of each individual compound (i.e. 10^−5M) added to each concentration point. Data are normalized to the norepinephrine or epinephrine binding curve alone without the addition of the compound to measure its effect on binding.

Data set [3] is described as follows: Body weight of 3×TG AD mice. The class given is in vivo, mouse. The conditions noted are these: female 3×TG mice. The procedure:
as §1
At 12 months of age mice were subjected to long term potentiation (LTP) (FIG. 25).
It is known that females in the 3×TG AD mouse model have higher penetrance for the disease than males so an increase in body weight may be a general sign of better health. Weight loss and muscle loss are well-known symptoms associated with AD (91-93).

The subject of data set [4] is α2-ARs. Description: Radioligand binding at α2-ARs. The procedure:
Characterization: Binding affinity. Using AR null stably-transfected cell lines that each express only one of the three individual α1-AR subtypes, compounds are characterized for their selectivity for the α1A-AR in radioligand binding studies. To be sure of no cross-reactivity, binding affinity against the α2-ARs and β-ARs are also measured. Details for such procedures are found generally at references 25-26, 94-98, all of which are herein incorporated by reference.

For data set [5], the target named is T1, α1A-AR. The data set is described as follows: Competition binding with [125I]HEAT at α1A-AR (Rat-1 fibroblast membranes). Also noted: expressed in transfected cells; host or cells: Rat-1 fibroblast cells. The procedure: Competition binding assays: […] Assays were performed in duplicate in HEM buffer, in a total assay volume of 1000 μl. […] The above conditions will convert all the conformations of the receptor into a single low affinity site. To show both high and low affinity sites of the receptor (typically seen with GPCR agonists), the GTP is removed from the binding buffer. Nonspecific binding was determined experimentally in the presence of 10^−4 M phentolamine. Unbound radioactivity was separated from membrane-bound radioactivity by filtration through Whatman GF/C filter paper. Filters are washed five times with 5 ml of cold HEM buffer containing 0.5 mMGTP (if added to the binding buffer but not if it was not added to the binding buffer). Bound radioactivity remaining on the filters was counted on an ICN gamma counter operating at 79.8% efficiency. Data are analyzed using Graphpad Prism.

Data set [6] has as its system 3×TG Alzheimer's Disease (AD) mouse model. The conditions noted are these: in vivo. The procedure: as §1

Turning to `CC(C)Cc1c(OCC2=NCCN2)cccc1N(C)S(C)(=O)=O` [Compound 3, N-[3-(4,5-Dihydro-1H-imidazol-2-ylmethoxy)-2-isobutyl-phenyl]-N-methyl-methanesulfonamide], the “velocity after tone (freezing)” value in data set [1] (female AD mice) is “slower movement speed”. In addition, the “active time after tone (freezing)” value in data set [1] (male AD mice) is “less active time”. Moreover, the “effect on binding affinity of epinephrine at the α1A-AR” value in data set [2] (10^−5M (highest dose tested)) is “no effect”. Moreover, the “effect on binding affinity of norepinephrine at the α1A-AR” value in data set [2] (fixed dose of compound, 10^−5M to 10^−9M) is reported as “increasing the affinity of norepinephrine in a dose-specific manner”. Besides, the “body weight vs untreated” value in data set [3] is reported as “increased body weight; also recorded: retained or gained body weight”. The “interaction with α2-ARs” value in data set [4] is on record as “does not interact with high affinity”. Also, in data set [5], the “binding behaviour against radiolabeled antagonist 125I-HEAT (full inhibition; competitive or allosteric)” value is on record as “cannot fully inhibit”. The Ki in data set [5] (0.5 mM GTP in binding buffer, competition with 125I-HEAT, read-out: affinity for the α1A-AR) is ~100 nM; in data set [5] (GTP removed from binding buffer, read-out: high affinity site) it was 0.001 nM. In data set [6], the “death rates between groups” value was “no differences in the death rates”.

Values taken from patent US12384751B2, “Allosteric activators of the ALPHA1A-adrenergic receptor” (The Cleveland Clinic Foundation, priority 2019, dated 2025).
